{"source": "PubChem BioAssay (NCI)", "test_in_all_cases": "NCI tumour cell line growth inhibition, 48 h", "key": {"[1]": {"tested_on": "MCF7 breast"}, "[2]": {"tested_on": "KM12 colon"}, "[3]": {"tested_on": "OVCAR-8 ovarian"}, "[4]": {"tested_on": "HL-60(TB) leukemia"}, "[5]": {"tested_on": "SF-295 CNS"}, "[6]": {"tested_on": "ACHN renal"}, "[7]": {"tested_on": "MDA-N"}, "[8]": {"tested_on": "MDA-MB-435"}, "[9]": {"tested_on": "NCI/ADR-RES ovarian"}, "[10]": {"tested_on": "UACC-62 melanoma"}, "[11]": {"tested_on": "HCT-116 colon"}, "[12]": {"tested_on": "PC-3 prostate"}, "[13]": {"tested_on": "A549 NSCLC"}, "[14]": {"tested_on": "CAKI-1 renal"}, "[15]": {"tested_on": "RXF 393 renal"}, "[16]": {"tested_on": "RPMI-8226 leukemia"}, "[17]": {"tested_on": "CCRF-CEM leukemia"}, "[18]": {"tested_on": "LOX IMVI melanoma"}, "[19]": {"tested_on": "K-562 leukemia"}, "[20]": {"tested_on": "U251 CNS"}, "[21]": {"tested_on": "NCI-H460 lung"}, "[22]": {"tested_on": "TK-10 renal"}, "[23]": {"tested_on": "T-47D breast"}, "[24]": {"tested_on": "SN12C renal"}, "[25]": {"tested_on": "SK-OV-3 ovarian"}, "[26]": {"tested_on": "NCI-H226 lung"}, "[27]": {"tested_on": "NCI-H522 lung"}, "[28]": {"tested_on": "HT29 colon"}, "[29]": {"tested_on": "A498 renal"}, "[30]": {"tested_on": "MOLT-4 leukemia"}, "[31]": {"tested_on": "MDA-MB-231 breast"}, "[32]": {"tested_on": "SNB-19 CNS"}, "[33]": {"tested_on": "NCI-H23 lung"}, "[34]": {"tested_on": "EKVX NSCLC"}, "[35]": {"tested_on": "IGROV1 ovarian"}, "[36]": {"tested_on": "HS 578T breast"}, "[37]": {"tested_on": "SF-268 CNS"}, "[38]": {"tested_on": "OVCAR-5 ovarian"}, "[39]": {"tested_on": "HCC-2998 colon"}, "[40]": {"tested_on": "SK-MEL-28 melanoma"}, "[41]": {"tested_on": "SR leukemia"}, "[42]": {"tested_on": "DU-145 prostate"}, "[43]": {"tested_on": "OVCAR-4 ovarian"}, "[44]": {"tested_on": "SK-MEL-2 melanoma"}, "[45]": {"tested_on": "OVCAR-3 ovarian"}, "[46]": {"tested_on": "HOP-62 NSCLC"}, "[47]": {"tested_on": "COLO 205 colon"}, "[48]": {"tested_on": "HCT-15 colon"}, "[49]": {"tested_on": "SK-MEL-5 melanoma"}, "[50]": {"tested_on": "SW-620 colon"}, "[51]": {"tested_on": "UO-31 renal"}, "[52]": {"tested_on": "SF-539 CNS"}, "[53]": {"tested_on": "M14 melanoma"}, "[54]": {"tested_on": "MALME-3M melanoma"}, "[55]": {"tested_on": "SNB-75 CNS"}}, "note": "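48-hour exposure; five concentrations; linearly interpolated endpoints. Definition used: TGI = concentration required for complete inhibition of growth.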", "data": [{"smiles": "N#Cc1c(N)nc(Nc2cccc3ccccc23)c(C#N)c1C#N", "values": [{"measurement": "TGI", "setting": "[1]", "result": "> 10", "unit": "µM"}, {"measurement": "TGI", "setting": "[2]", "result": "> 10", "unit": "µM"}, {"measurement": "TGI", "setting": "[3]", "result": "> 10", "unit": "µM"}, {"measurement": "TGI", "setting": "[4]", "result": 4.77, "unit": "µM"}, {"measurement": "TGI", "setting": "[5]", "result": "> 10", "unit": "µM"}, {"measurement": "TGI", "setting": "[6]", "result": "> 10", "unit": "µM"}, {"measurement": "TGI", "setting": "[7]", "result": 4, "unit": "µM"}, {"measurement": "TGI", "setting": "[8]", "result": "> 10", "unit": "µM"}, {"measurement": "TGI", "setting": "[9]", "result": "> 10", "unit": "µM"}, {"measurement": "TGI", "setting": "[10]", "result": "> 10", "unit": "µM"}, {"measurement": "TGI", "setting": "[11]", "result": "> 10", "unit": "µM"}, {"measurement": "TGI", "setting": "[12]", "result": "> 10", "unit": "µM"}, {"measurement": "TGI", "setting": "[13]", "result": "> 10", "unit": "µM"}, {"measurement": "TGI", "setting": "[14]", "result": "> 10", "unit": "µM"}, {"measurement": "TGI", "setting": "[15]", "result": "> 10", "unit": "µM"}, {"measurement": "TGI", "setting": "[16]", "result": 6.19, "unit": "µM"}, {"measurement": "TGI", "setting": "[17]", "result": 6.05, "unit": "µM"}, {"measurement": "TGI", "setting": "[18]", "result": 4.36, "unit": "µM"}, {"measurement": "TGI", "setting": "[19]", "result": 9.64, "unit": "µM"}, {"measurement": "TGI", "setting": "[20]", "result": "> 10", "unit": "µM"}, {"measurement": "TGI", "setting": "[21]", "result": "> 10", "unit": "µM"}, {"measurement": "TGI", "setting": "[22]", "result": "> 10", "unit": "µM"}, {"measurement": "TGI", "setting": "[23]", "result": "> 10", "unit": "µM"}, {"measurement": "TGI", "setting": "[24]", "result": "> 10", "unit": "µM"}, {"measurement": "TGI", "setting": "[25]", "result": "> 10", "unit": "µM"}, {"measurement": "TGI", "setting": "[26]", "result": "> 10", "unit": "µM"}, {"measurement": "TGI", "setting": "[27]", "result": "> 10", "unit": "µM"}, {"measurement": "TGI", "setting": "[28]", "result": "> 10", "unit": "µM"}, {"measurement": "TGI", "setting": "[29]", "result": "> 10", "unit": "µM"}, {"measurement": "TGI", "setting": "[30]", "result": 9.2, "unit": "µM"}, {"measurement": "TGI", "setting": "[31]", "result": "> 10", "unit": "µM"}, {"measurement": "TGI", "setting": "[32]", "result": "> 10", "unit": "µM"}, {"measurement": "TGI", "setting": "[33]", "result": "> 10", "unit": "µM"}, {"measurement": "TGI", "setting": "[34]", "result": "> 10", "unit": "µM"}, {"measurement": "TGI", "setting": "[35]", "result": "> 10", "unit": "µM"}, {"measurement": "TGI", "setting": "[36]", "result": 8.7, "unit": "µM"}, {"measurement": "TGI", "setting": "[37]", "result": "> 10", "unit": "µM"}, {"measurement": "TGI", "setting": "[38]", "result": "> 10", "unit": "µM"}, {"measurement": "TGI", "setting": "[39]", "result": "> 10", "unit": "µM"}, {"measurement": "TGI", "setting": "[40]", "result": "> 10", "unit": "µM"}, {"measurement": "TGI", "setting": "[41]", "result": 9.29, "unit": "µM"}, {"measurement": "TGI", "setting": "[42]", "result": "> 10", "unit": "µM"}, {"measurement": "TGI", "setting": "[43]", "result": "> 10", "unit": "µM"}, {"measurement": "TGI", "setting": "[44]", "result": "> 10", "unit": "µM"}, {"measurement": "TGI", "setting": "[45]", "result": 7.57, "unit": "µM"}, {"measurement": "TGI", "setting": "[46]", "result": "> 10", "unit": "µM"}, {"measurement": "TGI", "setting": "[47]", "result": "> 10", "unit": "µM"}, {"measurement": "TGI", "setting": "[48]", "result": "> 10", "unit": "µM"}, {"measurement": "TGI", "setting": "[49]", "result": "> 10", "unit": "µM"}, {"measurement": "TGI", "setting": "[50]", "result": "> 10", "unit": "µM"}, {"measurement": "TGI", "setting": "[51]", "result": "> 10", "unit": "µM"}, {"measurement": "TGI", "setting": "[52]", "result": "> 10", "unit": "µM"}, {"measurement": "TGI", "setting": "[53]", "result": "> 10", "unit": "µM"}, {"measurement": "TGI", "setting": "[54]", "result": "> 10", "unit": "µM"}, {"measurement": "TGI", "setting": "[55]", "result": "> 10", "unit": "µM"}]}]}
